# From PubChem BioAssay (NCI)
# “And” between values parts separate entries of the source, which are not always exact repeats. Identical values can stand only once.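 In this assay, cells in 96-well plates receive the compound at five concentrations for 48 hours. Endpoints are linearly interpolated between the surrounding concentrations. Here, GI50 denotes the concentration required for 50% inhibition of growth. At the TGI there is no net growth.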
# What was measured:
# Assay in all cases: NCI tumour cell line growth inhibition, 48 h
# COLO 205 colon = tested on: COLO 205 colon
# MALME-3M melanoma = tested on: MALME-3M melanoma
# DU-145 prostate = tested on: DU-145 prostate
# OVCAR-3 ovarian = tested on: OVCAR-3 ovarian
# MCF7 breast = tested on: MCF7 breast
# SNB-19 CNS = tested on: SNB-19 CNS
# MDA-MB-435 = tested on: MDA-MB-435
# SF-295 CNS = tested on: SF-295 CNS
# HT29 colon = tested on: HT29 colon
# SF-539 CNS = tested on: SF-539 CNS
Structure (SMILES),TGI (COLO 205 colon) [µM],TGI (MALME-3M melanoma) [µM],TGI (DU-145 prostate) [µM],TGI (OVCAR-3 ovarian) [µM],TGI (MCF7 breast) [µM],TGI (SNB-19 CNS) [µM],TGI (MDA-MB-435) [µM],TGI (SF-295 CNS) [µM],TGI (HT29 colon) [µM],TGI (SF-539 CNS) [µM],GI50 (COLO 205 colon),GI50 (MALME-3M melanoma) [µM],GI50 (DU-145 prostate) [µM],GI50 (OVCAR-3 ovarian) [µM],GI50 (MCF7 breast) [µM],GI50 (SNB-19 CNS) [µM],GI50 (MDA-MB-435) [µM],GI50 (SF-295 CNS) [µM],GI50 (HT29 colon) [µM],GI50 (SF-539 CNS) [µM]
c1cc2c(c(NC3=NCCN3)c1)CCCC2,> 100,> 100,> 100,> 100,> 100,> 100,> 100,> 100,> 100,> 100,–,–,–,–,–,–,–,–,–,–
O=C(/C=C/c1ccc(O)cc1)c1cc(Cl)ccc1O,> 100,> 100,–,> 100,–,> 100,–,> 100,> 100,44.9,–,–,–,–,–,–,–,–,–,–
O=C1NC(=O)C(c2c[nH]c3ccccc23)=C1c1ccccc1,> 25,> 25,> 25,> 25,> 25,> 25,> 25,> 25,> 25,> 25,> 25 µM,> 25,> 25,> 25,> 25,> 25,> 25,> 25,> 25,> 25
ClCCCCOC1CCCCO1 (centres undefined),> 100,> 100,–,> 100,–,> 100,–,> 100,> 100,> 100,–,–,–,–,–,–,–,–,–,–
Nc1nc2ncn(CC(O)COC(=O)c3ccccc3)c2c(=O)[nH]1 (centres undefined),> 100,> 100,–,> 100,–,–,–,> 100,> 100,> 100,–,–,–,–,–,–,–,–,–,–
COC(CC1(OC)OC(=O)C=C1N)OC (centres undefined),> 100,> 100,–,> 100,–,> 100,–,> 100,> 100,> 100,–,–,–,–,–,–,–,–,–,–
N=C1C(c2nc3ccccc3s2)=C(O)CN1c1cc(Cl)cc(Cl)c1,> 100,> 100,> 100,> 100,> 100,> 100,> 100,> 100,> 100,> 100,> 100 µM,29.4,> 100,88.2,> 100,> 100,> 100,89.2,> 100,34.3
N#CC1C(=O)NC(=O)C1=O (centres undefined),> 100,> 100,–,> 100,–,> 100,–,> 100,> 100,> 100,–,–,–,–,–,–,–,–,–,–
COc1ccc2c(c1)N(CCO)C1=C(C(=O)OC1)C2c1ccc(OC)c(OC)c1 (centres undefined),5.93,–,9.38,4.24,> 100,> 100,2.13,> 100,7.51,–,2.53 µM,–,3.01,1.92,2.67,4.54,0.407,2.43,2.73,–
CCCCC(C(=O)CCC(=O)Nc1ccc(Cl)cc1)C(=O)C(C)C (centres undefined),> 100,> 100,–,> 100,–,> 100,–,> 100,> 100,> 100,–,–,–,–,–,–,–,–,–,–
CCCCCCCCCCCC(=O)OC(COC(N)=O)COc1ccc(Cl)cc1 (centres undefined),37.5,48.3,–,31.6,–,83,–,40,40.6,66.4,–,–,–,–,–,–,–,–,–,–
COC1=CC2CCN3Cc4cc5c(cc4C(C1O)C23)OCC5 (centres undefined),1.92,–,21.2,5.62,> 100,> 24.5,21.3,24.4,9.48,21.3,0.513 µM,–,2.56,1.78,3.36,0.992,3.44,3.88,0.97,3.95
COC(=O)C1=C(\O)C[C@@]2(C)CC[C@@H](C(=O)OC)C2C/C=C\1C(=O)OC (some centres undefined),> 100,> 100,–,> 100,–,> 100,–,> 100,> 100,38.8,–,–,–,–,–,–,–,–,–,–
Fc1ccc(C2C3CCOc4c(ccc5ccccc45)C3=NN2c2ccccc2)cc1 (centres undefined),> 100,> 100,> 100,> 100,> 100,> 100,> 100,> 100,> 100,–,> 100 µM,> 38.7,> 100,99.6,> 85.4,99.2,> 100,20.7,> 100,–
N#Cc1cn(-c2c3ccccc3nc3ccccc23)c(=O)[nH]c1=O,64.3,24.3,–,35.6,–,90.7,–,23.8,28.5,7.71,–,–,–,–,–,–,–,–,–,–
CN1CCc2cc3c4cc2C1Cc1ccc(cc1)Oc1cc(ccc1O)CC1c2c(cc(O)c(c2O4)O3)CCN1C (centres undefined),21.9,3.56,–,11.5,–,7.38,–,3.11,9.42,3.21,–,–,–,–,–,–,–,–,–,–
CN1CCN(c2ccc(Nc3ncc4cc5n(c4n3)C3(CCCCC3)CNC5=O)nc2)CC1,11.3,15.4,17.2,13.1,14.6,–,24,18.4,19.2,6.72,0.0632 µM,0.866,3.43,3.16,0.109,–,2.02,3.09,0.397,2.29
N#Cc1c(N)c(C#N)c2c(c1-c1ccc(Cl)cc1)COc1ccc(F)cc1-2,> 50,–,> 50,> 50,> 50,> 50,> 50,> 50,> 50,> 50,> 50 µM,–,14.7,16.2,16.5,> 50,> 50,13.5,49.7,28.2
C#Cc1ccc(-n2c(/C=C/c3ccc4ccccc4c3)nc3ncccc3c2=O)cc1,–,> 100,> 100,–,> 100,–,> 100,–,> 100,> 100,–,4.97,7.45,–,2.43,–,2.06,–,3.26,2.91
COc1cc(/C=C/c2cc(O)c(C/C=C(\C)CC/C=C(\C)CO)c(O)c2)cc2c1O[C@]1(C)CC[C@@H](O)C(C)(C)[C@H]1C2,> 100,–,> 100,> 70.2,–,> 100,> 79.6,–,> 100,11.1,3.21 µM and 15.6 µM,–,26.4,> 29.3,–,> 91.9,38.4,1.1,31.1,3.4

Structure (SMILES),TGI (COLO 205 colon) [µM],TGI (MALME-3M melanoma) [µM],TGI (DU-145 prostate) [µM],TGI (OVCAR-3 ovarian) [µM],TGI (MCF7 breast) [µM],TGI (SNB-19 CNS) [µM],TGI (MDA-MB-435) [µM],TGI (SF-295 CNS) [µM],TGI (HT29 colon) [µM],TGI (SF-539 CNS) [µM],GI50 (COLO 205 colon),GI50 (MALME-3M melanoma) [µM],GI50 (DU-145 prostate) [µM],GI50 (OVCAR-3 ovarian) [µM],GI50 (MCF7 breast) [µM],GI50 (SNB-19 CNS) [µM],GI50 (MDA-MB-435) [µM],GI50 (SF-295 CNS) [µM],GI50 (HT29 colon) [µM],GI50 (SF-539 CNS) [µM]
CNCCNc1nc2ccccc2c2c(=O)c3cccc(C)c3sc12,1.92,11.7,6.52,5.27,1.82,–,2.22,12.1,1.92,12.8,0.921 µM,5.16,1.89,1.47,0.793,–,1.05,5.54,0.887,6.42
O=C(O)c1cn(C2CC2)c2cc(N3CCN(Cc4ccc5ccccc5c4O)CC3)c(F)cc2c1=O,> 100,–,–,–,> 100,> 100,> 100,> 100,> 100,–,3.27 µM,–,–,–,3.63,29.8,3.12,4.29,4.35,–
CCCCCCSc1nc(COC(=O)NC)c(COC(=O)NC)n1C,> 100,–,> 100,> 100,> 100,> 100,> 100,> 100,> 100,> 100,–,–,–,–,–,–,–,–,–,–
CC1CC(c2ccc(Cl)c(Cl)c2)=Nc2ccccc2S1 (centres undefined),> 100,> 100,–,> 100,–,> 100,–,> 100,> 100,> 100,–,–,–,–,–,–,–,–,–,–
COc1ccc(/C=C2/CN(CCC#N)C/C(=C\c3ccc(OC)cc3)C2=O)cc1,3.5,8.58,> 100,7.46,> 100,> 100,> 100,–,3.9,5.42,1.91 µM,2.95,4.25,2.79,1.72,4.07,2.99,–,1.9,2.12
Cc1ccc2nc3c(C)cc(=O)cc-3sc2c1,72.2,81.1,–,55.2,–,> 100,–,> 100,> 100,42.6,–,–,–,–,–,–,–,–,–,–
NCC1(N2CCOCC2)C2CCCC21CNc1ccccc1 (centres undefined),> 100,> 100,–,> 100,–,> 100,–,> 100,> 100,> 100,–,–,–,–,–,–,–,–,–,–
COC(=O)C1(O)c2ccccc2N=C2C1CCN2C (centres undefined),> 100,> 100,–,–,–,> 100,–,> 100,> 100,> 100,–,–,–,–,–,–,–,–,–,–
O=C1CC[C@@H](NC(=O)Cc2ccccc2)C(=O)N1,> 100,> 100,–,> 100,–,> 100,–,> 100,> 100,> 100,–,–,–,–,–,–,–,–,–,–
COC(=O)NC(=O)c1cn(C2CCCCC2)c(=O)[nH]c1=O,> 100,> 100,–,> 100,–,> 100,–,> 100,> 100,> 100,–,–,–,–,–,–,–,–,–,–
O=C(CSc1ncc(-c2ccccc2)n1-c1ccccc1)Nc1ccc(-c2nc3ccccc3s2)cc1,> 100,–,–,> 100,> 100,> 100,–,> 100,–,> 100,> 100 µM,–,–,7.22,3.98,15.1,–,3.53,–,6.25
c1ccc2c(c1)N=C(c1ccc3ccccc3c1)CC(c1cccc3ccccc13)S2 (centres undefined),> 100,> 100,–,> 100,–,> 100,–,> 100,> 100,> 100,–,–,–,–,–,–,–,–,–,–
Cc1cn2c(/C=C3/C(=O)Nc4ccc(Cl)cc43)c(C)nc2s1,–,–,> 39.3,5.28,> 100,> 42.4,5.41,2.65,> 56.8,0.692,–,1.22,0.84,0.564,1.57,–,2.12,0.871,–,0.124
NC(=O)c1ncn(Cc2ccccc2)c1CNC(N)=S,> 100,–,–,> 100,–,> 100,–,> 100,> 100,> 100,–,–,–,–,–,–,–,–,–,–
CC1(C)CC(N2CCN(C3CC(C)(C)NC(C)(C)C3)CC2)CC(C)(C)N1,–,–,–,> 100,–,> 100,–,> 100,> 100,> 100,–,–,–,–,–,–,–,–,–,–
O=C1N=C(Nc2nc(-c3csc(NC4=NC(=O)/C(=C\c5ccc(Cl)cc5)S4)n3)cs2)S/C1=C/c1ccc(Cl)cc1,> 50,–,> 50,37.3,> 50,> 50,> 50,> 50,> 50,46.2,29.9 µM,–,17,10.5,3.97,12,12.8,17.4,23.6,15.4
Cc1ccc(NC(=O)C(=O)CC(=O)c2ccccc2)cc1C,> 100,> 100,–,> 100,–,> 100,–,> 100,> 100,> 100,–,–,–,–,–,–,–,–,–,–
O=C1c2ccccc2C(=O)c2c1ccc1c2N=C(c2ccc(Br)cc2)CC(c2cccc3ccccc23)N1 (centres undefined),> 100,> 100,–,> 100,–,> 100,–,> 100,> 100,> 100,–,–,–,–,–,–,–,–,–,–
Cc1c(O)c(Br)c(C)c(O)c1Br (tested in a mixture with another compound),3.6,3.55,5.15,–,–,41.7,3.44,37.1,4.78,10,–,–,–,–,–,–,–,–,–,–
O=C(NC1C(=O)NNC1c1ccccc1Cl)c1ccccc1 (centres undefined),> 100,> 100,–,> 100,–,> 100,–,> 100,> 100,> 100,–,–,–,–,–,–,–,–,–,–
